Values joined by “and” are separate entries in the source; they are usually repeats but may differ in a detail not shown here. Identical values can stand only once. Like-named read-outs stand apart in the source and are kept apart here.
Experiments:
[1] = Phase I trial: plasma pharmacokinetics of topotecan and lapatinib; conditions: for AUC(0-t) / Cmax / Topotecan CLp: n = 9, geometric mean and 95% CI; for Cmax: Topotecan Cmax; for half-life / Topotecan CLNRF / Topotecan Vss: geometric mean and 95% CI; for Topotecan CLNRF: CLp minus CLCR
[2] = tested on: patients with advanced solid tumors; experiment: Phase I trial: MTD, DLTs and adverse events; format: in vivo, human
[3] = single agent, cited from earlier work
[4] = tested on: BT474 human breast carcinoma xenografts; experiment: BT474 xenograft tumor growth inhibition; format: in vivo, CB-17 SCID mice
BCRP [5] = target: T1, BCRP (Homo sapiens, UniProt Q9UNQ0); conditions: read-out: in vitro Ki for inhibition of BCRP; cited from earlier work
T1 sequence (Q9UNQ0 1-655): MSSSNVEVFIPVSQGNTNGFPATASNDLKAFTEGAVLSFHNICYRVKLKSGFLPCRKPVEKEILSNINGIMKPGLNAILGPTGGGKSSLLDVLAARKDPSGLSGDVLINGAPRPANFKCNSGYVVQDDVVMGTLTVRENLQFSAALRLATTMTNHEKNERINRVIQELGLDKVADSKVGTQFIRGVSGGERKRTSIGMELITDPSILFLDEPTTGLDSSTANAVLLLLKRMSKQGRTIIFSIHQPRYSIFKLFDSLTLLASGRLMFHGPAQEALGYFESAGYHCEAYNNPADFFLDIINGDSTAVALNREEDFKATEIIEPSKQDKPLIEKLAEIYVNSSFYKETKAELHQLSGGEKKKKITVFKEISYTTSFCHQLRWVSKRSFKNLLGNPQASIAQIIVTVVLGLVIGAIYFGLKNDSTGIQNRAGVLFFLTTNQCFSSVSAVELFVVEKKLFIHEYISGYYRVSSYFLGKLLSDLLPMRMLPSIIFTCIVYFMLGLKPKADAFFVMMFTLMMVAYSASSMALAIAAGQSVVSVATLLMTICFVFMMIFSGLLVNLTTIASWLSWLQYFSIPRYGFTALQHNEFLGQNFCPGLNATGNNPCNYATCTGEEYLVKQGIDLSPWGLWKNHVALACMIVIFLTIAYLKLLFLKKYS

[6] = tested on: MDA-MB-231/empty vector cells; experiment: Clonogenic assay with topotecan plus lapatinib in MDA-MB-231/empty vector cells; format: cell-based; conditions: MDA-MB-231 cells transfected with empty vector, 1 µmol/L lapatinib, 24 h
BCRP [7] = target: T1, BCRP; experiment: Topotecan accumulation by flow microfluorimetry in MDA-MB-231/BCRP cells; format: cell-based
Pgp [8] = target: Pgp (Cricetulus griseus, UniProt P21448); experiment: Topotecan accumulation by flow microfluorimetry in CH^RC5 cells; format: cell-based, Chinese hamster; conditions: 1,000 nmol/L lapatinib, n = 3
Pgp [9] = conditions: cited from earlier work
[10] = format: in vivo, human; conditions: fit of CLNRF ratio versus lapatinib steady-state Cmin, ±35%
[11] = tested on: MDA-MB-231/empty vector cells; experiment: Topotecan accumulation by flow microfluorimetry in MDA-MB-231/empty vector cells; format: cell-based; conditions: MDA-MB-231 cells transfected with empty vector
[12] = cited from earlier work
AuxB1 cells = experiment: Topotecan accumulation by flow microfluorimetry in AuxB1 cells; format: cell-based, Chinese hamster; conditions: AuxB1 cells (lower Pgp), compared with CH^RC5
[13] = geometric least squares mean ratio and 90% CI

Sequence of Pgp (Cricetulus griseus, UniProt P21448) (P21448 whole entry): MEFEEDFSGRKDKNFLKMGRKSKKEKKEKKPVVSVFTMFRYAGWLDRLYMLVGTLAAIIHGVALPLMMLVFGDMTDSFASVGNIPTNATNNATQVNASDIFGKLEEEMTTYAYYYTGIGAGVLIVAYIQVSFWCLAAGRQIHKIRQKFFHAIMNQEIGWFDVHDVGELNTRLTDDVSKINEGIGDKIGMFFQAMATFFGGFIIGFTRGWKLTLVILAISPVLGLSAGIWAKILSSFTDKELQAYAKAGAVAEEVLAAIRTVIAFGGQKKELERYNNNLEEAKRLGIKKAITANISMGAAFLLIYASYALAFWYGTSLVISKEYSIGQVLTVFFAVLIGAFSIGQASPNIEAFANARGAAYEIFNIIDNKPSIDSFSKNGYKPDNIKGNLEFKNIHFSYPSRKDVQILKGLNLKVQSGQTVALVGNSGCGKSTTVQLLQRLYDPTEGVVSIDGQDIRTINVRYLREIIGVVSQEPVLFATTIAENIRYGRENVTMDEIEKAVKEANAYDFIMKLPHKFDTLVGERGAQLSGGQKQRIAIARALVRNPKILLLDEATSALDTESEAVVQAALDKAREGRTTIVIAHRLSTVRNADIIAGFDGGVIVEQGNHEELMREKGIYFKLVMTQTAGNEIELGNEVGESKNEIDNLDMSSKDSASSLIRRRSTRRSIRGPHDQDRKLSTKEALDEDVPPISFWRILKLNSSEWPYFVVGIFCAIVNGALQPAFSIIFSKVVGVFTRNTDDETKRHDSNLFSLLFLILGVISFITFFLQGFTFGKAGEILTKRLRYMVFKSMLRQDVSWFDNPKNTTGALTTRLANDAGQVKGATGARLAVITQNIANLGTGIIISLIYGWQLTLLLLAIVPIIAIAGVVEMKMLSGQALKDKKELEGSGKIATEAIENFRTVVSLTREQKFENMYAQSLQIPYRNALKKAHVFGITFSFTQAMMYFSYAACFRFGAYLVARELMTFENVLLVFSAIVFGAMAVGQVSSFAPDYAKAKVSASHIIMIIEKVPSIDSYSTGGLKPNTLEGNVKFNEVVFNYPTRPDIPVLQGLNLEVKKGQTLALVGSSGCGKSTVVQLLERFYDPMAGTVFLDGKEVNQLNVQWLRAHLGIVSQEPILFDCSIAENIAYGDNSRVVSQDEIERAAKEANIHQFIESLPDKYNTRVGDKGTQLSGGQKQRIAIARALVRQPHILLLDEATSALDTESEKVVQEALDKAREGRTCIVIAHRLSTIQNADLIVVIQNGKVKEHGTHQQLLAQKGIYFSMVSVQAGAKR

CC[C@@]1(O)C(=O)OCc2c1cc1n(c2=O)Cc2cc3c(CN(C)C)c(O)ccc3nc2-1 [topotecan]
increase of topotecan AUC0–24 h in the presence of lapatinib ([1]; (7–29%)): 18%
decrease of topotecan CLNRF when administered with lapatinib ([1]; (12–32%)): 22%
decrease in topotecan CLp when administered with lapatinib ([1]; day 8 versus day 1): 16%
Topotecan AUC0–24 h, day 8:day 1 ratio [1, 13]: 1.18 (1.07–1.29)
Topotecan CLNRF, day 8:day 1 ratio [1, 13]: 0.78 (0.68–0.88)
Topotecan CLp, day 8:day 1 ratio [1, 13]: 0.84 (0.76–0.92)
Topotecan Cmax, day 8:day 1 ratio [1, 13]: 0.79 (0.66–0.92)
Topotecan Vss, day 8:day 1 ratio [1, 13]: 0.99 (0.90–1.08)
Topotecan t1/2, day 8:day 1 ratio [1, 13]: 1.01 (0.96–1.06)
AUC(0-t) ([1]; human, plasma, intravenous, Topotecan AUC0–24 h, lapatinib + topotecan (day 8)): 510 ng·h/mL
AUC(0-t) ([1]; human, plasma, intravenous, Topotecan AUC0–24 h, topotecan alone (day 1)): 432 ng·h/mL
Cmax ([1]; human, plasma, intravenous, lapatinib + topotecan (day 8)): 128 ng/mL
Cmax ([1]; human, plasma, intravenous, topotecan alone (day 1)): 162 ng/mL
half-life ([1]; human, plasma, intravenous, Topotecan t1/2, lapatinib + topotecan (day 8)): 4.35 h
half-life ([1]; human, plasma, intravenous, Topotecan t1/2, topotecan alone (day 1)): 4.3 h
Topotecan CLNRF ([1]; lapatinib + topotecan (day 8)): 4.11 (2.72–5.50) L/h/m^2
Topotecan Vss ([1]; lapatinib + topotecan (day 8)): 30.1(23.9–36.3) L/m^2
Topotecan CLp ([1]; lapatinib + topotecan (day 8)): 6.14 L/h/m^2
Topotecan CLp ([1]; lapatinib + topotecan (day 8), listed as Topotecan): 6.14 (4.27–8.01) L/h/m^2
topotecan CLNRF as % of CLp ([1]; topotecan administered alone): 72%
Topotecan CLNRF ([1]; topotecan alone (day 1)): 5.25 (3.99–6.51) L/h/m^2
Topotecan Vss ([1]; topotecan alone (day 1)): 30.5 (26.5–34.5) L/m^2
Topotecan CLp ([1]; topotecan alone (day 1)): 7.28 L/h/m^2
Topotecan CLp ([1]; topotecan alone (day 1), listed as Topotecan): 7.28 (5.35–8.91) L/h/m^2
topotecan CLNRF as % of CLp ([1]; topotecan and lapatinib administered together): 66%
MTD and recommended phase II dose of topotecan in the combination ([2]; i.v. on days 1, 8, 15 of a 28-day cycle): 3.2 mg/m^2
MTD for topotecan alone ([3]; × 3): 4 mg/m^2/wk
topotecan doses at which neutropenia is the principal toxicity [3]: above 4 mg/m^2/wk
inhibition of BT474 tumor growth ([4]; topotecan alone 6 mg/kg i.p. every 4 d × 3, study 2): 53%
inhibition of BT474 tumor growth ([4]; topotecan alone 10 mg/kg i.p. every 4 d × 3, study 1): 66%
inhibition of BT474 tumor growth ([4]; topotecan alone 10 mg/kg i.p. every 4 d × 3, study 2): 65%

CS(=O)(=O)CCNCc1ccc(-c2ccc3ncnc(Nc4ccc(OCc5cccc(F)c5)c(Cl)c4)c3c2)o1 [lapatinib]
AUC(0-t) ([1]; human, plasma, oral, Lapatinib AUC0–24 h, lapatinib + topotecan (day 8)): 31700 ng·h/mL
AUC(0-t) ([1]; human, plasma, oral, Lapatinib AUC0–24 h, lapatinib alone (day 7)): 23300 ng·h/mL
Tmax ([1]; human, plasma, oral, Lapatinib Tmax, lapatinib alone (day 7), median and range): 3 h
Ki (BCRP [5]): 24.1 nM and 25 nM
MTD and recommended phase II dose of lapatinib in the combination ([2]; for 28 days of a 28-day cycle): 1,250 mg/d
effect on topotecan-induced inhibition of colony formation [6]: little effect
EC50 (BCRP [7]): 250 nM
intracellular topotecan, % of steady-state accumulation in the absence of lapatinib (Pgp [8]): 220 ± 20%
in vitro Ki for inhibition of Pgp (Pgp [9]): 2,300 ng/mL
Ki (Pgp [9]; read-out: in vitro Ki for inhibition of Pgp): 3900 nM
Ki (lapatinib concentration producing 50% inhibition of topotecan CLNRF) [10]: 2,349 ng/mL
effect on intracellular topotecan [11]: little effect
Lapatinib AUC in mice ([12]; 30 mg/kg orally twice daily): 5000 ng·h/mL
Lapatinib Cmax in mice ([12]; 30 mg/kg orally twice daily): 1000 ng/mL
Lapatinib AUC in mice ([12]; 60 mg/kg orally twice daily): 29000 ng·h/mL
Lapatinib Cmax in mice ([12]; 60 mg/kg orally twice daily): 4000 ng/mL
Lapatinib AUC in mice ([12]; 100 mg/kg orally twice daily): 94000 ng·h/mL
Lapatinib Cmax in mice ([12]; 100 mg/kg orally twice daily): 9000 ng/mL
effect on intracellular topotecan (AuxB1 cells): more modest
dose up to which lapatinib was well tolerated in phase I trials ([3]; diarrhea and rash dose limiting): up to 1,800 mg/d
inhibition of BT474 tumor growth ([4]; lapatinib 30 mg/kg oral twice daily 21 d, study 2, day 70): 26%
inhibition of BT474 tumor growth ([4]; lapatinib 60 mg/kg oral twice daily 21 d, study 1, day 56): 79%
inhibition of BT474 tumor growth ([4]; lapatinib 100 mg/kg oral twice daily 21 d, study 1, day 56): 77%
inhibition of BT474 tumor growth ([4]; lapatinib 100 mg/kg oral twice daily 21 d, study 2, day 70): 82%

From PMC2725396 (Clinical cancer research : an official journal of the …, 2008)
